From US12030876B2, “Aryl hydrocarbon receptor (AHR) agonists and uses thereof” (Ikena Oncology, Inc., priority 2019, dated 2024)
Read-outs that look alike come from different tables or passages of the source.

Columns and labels:
AHR [1] = molecular target: T1, AHR (Homo sapiens, UniProt P35869); assay: DRE-Luciferase Reporter Assay, HepG2 (agonist); type: cell-based; settings: read-out: DRE-Luc HepG2 - Agonist: Average EC50
T1 construct: endogenous in cells; host or cells: HepG2 (human), transfected with a DRE-luciferase reporter only
T1 sequence (P35869 11-848): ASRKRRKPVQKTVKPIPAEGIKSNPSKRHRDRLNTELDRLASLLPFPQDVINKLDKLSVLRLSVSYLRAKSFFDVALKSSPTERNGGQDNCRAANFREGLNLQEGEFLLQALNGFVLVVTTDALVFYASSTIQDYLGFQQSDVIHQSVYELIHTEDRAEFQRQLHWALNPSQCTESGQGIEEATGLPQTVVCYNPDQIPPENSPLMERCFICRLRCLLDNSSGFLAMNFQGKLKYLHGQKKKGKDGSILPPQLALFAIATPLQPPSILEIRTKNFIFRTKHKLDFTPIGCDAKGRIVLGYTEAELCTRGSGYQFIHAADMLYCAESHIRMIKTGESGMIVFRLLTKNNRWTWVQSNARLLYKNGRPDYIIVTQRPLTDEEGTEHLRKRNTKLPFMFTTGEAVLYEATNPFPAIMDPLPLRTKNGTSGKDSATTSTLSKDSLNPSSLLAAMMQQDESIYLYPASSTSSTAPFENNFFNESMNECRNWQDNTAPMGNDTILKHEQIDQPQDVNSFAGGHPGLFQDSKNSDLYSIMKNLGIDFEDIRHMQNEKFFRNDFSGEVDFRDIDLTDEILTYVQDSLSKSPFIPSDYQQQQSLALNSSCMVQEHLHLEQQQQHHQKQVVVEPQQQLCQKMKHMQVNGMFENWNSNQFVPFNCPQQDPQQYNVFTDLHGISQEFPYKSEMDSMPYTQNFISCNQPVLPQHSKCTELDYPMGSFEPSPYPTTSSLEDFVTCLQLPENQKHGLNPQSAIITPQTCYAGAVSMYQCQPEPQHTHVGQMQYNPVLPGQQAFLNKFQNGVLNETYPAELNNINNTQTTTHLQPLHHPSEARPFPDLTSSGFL
Protocol: (§1) DRE-Luciferase Reporter Assay
(§2) AHR binds to Dioxin Responsive Elements (DRE) upstream of genes that it activates. One measure of AHR activity is activation of a reporter gene, such as luciferase, downstream of one or multiple DRE elements. Luciferase activity reflects activation and inhibition of AHR in the cells expressing this reporter.
(§3) Murine Hepa1-6 or Hepa-1c1c7 or other murine cell line with a DRE-luciferase reporter either stably or transiently transfected are plated in media in plates (96-well, 384-well or other plates) and incubated overnight at 37 C in a CO2 incubator. Likewise, human HepG2 or other human cell line with a DRE-luciferase reporter either stably or transiently transfected are plated in media in plates (96-well, 384-well or other plates) and incubated overnight at 37 C in a CO2 incubator.
(§4) The next day, an AHR agonist compound is added. Cells are incubated for 6, 16 or 24 hours or another time point and then lysed for determination of luciferase activity as a read-out of the AHR activation. Luciferase can be measured with a commercial kit such as the Promega Luciferase kit or any kit or reagents that provide the luciferin substrate for measuring luciferase activity. The level of luciferase with only activating ligand (e.g. such as TCDD, kynurenine, ITE (2-(1H-indole-3-ylcarbonyl)-4-thiazolecarboxylic methyl ester), VAF347, BNF (beta-naphthoflavone), ICZ (6-formylindolo(3,2-b) carbazole or other AHR ligands) added is the maximum signal while the luciferase with no ligand is the minimum signal. EC50s can be determined as the concentration which activates half of the maximum luciferase activity.

AHR [2] = molecular target: T2, AHR (Mus musculus, UniProt P30561); assay: DRE-Luciferase Reporter Assay, Hepa1.6 (agonist); type: cell-based, murine; settings: Hepa1.6, Table 3; read-out: DRE-Luc Hepa1.6 - Agonist: Average EC50
T2 sequence (P30561 1-848 F348L/P471L): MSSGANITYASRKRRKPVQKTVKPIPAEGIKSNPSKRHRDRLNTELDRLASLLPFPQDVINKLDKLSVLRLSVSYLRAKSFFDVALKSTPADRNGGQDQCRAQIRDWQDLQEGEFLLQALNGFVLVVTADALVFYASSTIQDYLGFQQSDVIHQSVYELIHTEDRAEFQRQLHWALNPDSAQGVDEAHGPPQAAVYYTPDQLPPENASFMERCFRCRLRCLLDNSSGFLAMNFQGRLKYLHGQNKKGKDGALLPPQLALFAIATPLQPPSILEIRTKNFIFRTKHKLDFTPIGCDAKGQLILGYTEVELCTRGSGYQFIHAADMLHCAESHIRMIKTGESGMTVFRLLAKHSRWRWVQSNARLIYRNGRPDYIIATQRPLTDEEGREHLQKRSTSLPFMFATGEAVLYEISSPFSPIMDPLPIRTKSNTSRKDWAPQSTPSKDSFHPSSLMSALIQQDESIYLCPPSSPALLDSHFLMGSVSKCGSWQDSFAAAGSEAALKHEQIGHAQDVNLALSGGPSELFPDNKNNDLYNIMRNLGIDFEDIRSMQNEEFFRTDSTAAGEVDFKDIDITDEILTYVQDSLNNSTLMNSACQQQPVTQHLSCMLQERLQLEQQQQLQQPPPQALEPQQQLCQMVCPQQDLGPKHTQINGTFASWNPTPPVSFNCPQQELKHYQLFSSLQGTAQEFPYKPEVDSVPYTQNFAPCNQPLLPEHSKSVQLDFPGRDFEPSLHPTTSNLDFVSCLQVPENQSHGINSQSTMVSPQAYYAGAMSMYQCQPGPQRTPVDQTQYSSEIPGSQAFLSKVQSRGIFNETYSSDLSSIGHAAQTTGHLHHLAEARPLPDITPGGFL
Protocol: as §1, §2, §3, §4

AHR [3] = molecular target: T2, AHR; assay: P450 CYP1A1 Luciferase Assay, Hepa1.6 (agonist); type: cell-based, murine; settings: Hepa1.6, Table 2
Protocol: P450 CYP1A1 Luciferase Assay
AHR binds to Dioxin Responsive Elements (DRE) upstream of genes that it activates. One measure of AHR activity is P450 CYP1A1 protein levels determined by measuring CYP1A1 enzyme activity using a luminogenic CYP1A1 luciferin-based substrate. Luciferase activity will reflect CYP1A1 activity resulting from activation of AHR in the cells.
Murine Hepa1-6 or Hepa-1c1c7 or other murine cell line, human HepG2 or other human cell line are plated in media (96-well, 384-well or other plates) and incubated overnight at 37 C in a CO2 incubator.
as §4, with “lysed and incubated with a CYP1A1 luciferase-based substrate (e.g. Luciferin-CEE)” for “lysed”, “3, 6, or 12 hours of another time point. Determination” for “determination”, “CYP1A1 enzyme activity” for “the AHR activation. Luciferase”, “P450 Glo CYP1A1 detection reagent” for “Luciferase kit”, “provide” for “provide the luciferin substrate”

EC50 (AHR [1]; HepG2, Table 3) [nM]	EC50 (AHR [2]) [nM]	EC50 (AHR [1]; HepG2, Table 2) [nM]	EC50 (AHR [3]) [nM]	Compound
> 1000	> 1000	–	–	Fc1ccc(-c2csc(Nc3cccc(C(F)(F)F)c3)n2)cc1/N=N/c1cc(-c2csc(Nc3cccc(C(F)(F)F)c3)n2)ccc1F [I-171]
> 1000	> 1000	–	–	C[N+]1(C)CCN(C(=O)c2cccc(Nc3nc(-c4ccc[n+]([O-])c4)cs3)c2)CC1 [I-159]
< 10	> 1000	–	–	O=c1cc(-c2nsc(Nc3cccc(C(F)(F)F)c3)n2)cc[nH]1 [I-128]
< 10	< 10	–	–	Nc1cncc(-c2csc(Nc3cccc(C(F)(F)F)c3)n2)c1 [I-164]
10 to 100	> 1000	–	–	CCCOc1cc(-c2csc(Nc3cccc(C(F)(F)F)c3)n2)ccn1 [I-155]
> 1000	> 1000	–	–	O=C(O)c1cc(/N=N/c2cccc(-c3csc(Nc4cccc(C(F)(F)F)c4)n3)c2)cc(C(=O)O)c1 [I-176]
–	–	< 10	> 1000	FC(F)(F)c1cccc(Nc2nc(-c3cccc(Cl)c3)ns2)c1 [I-58]
–	–	100 to 1000	> 1000	O=C(c1cccc(-c2csc(Nc3cccc(C(F)(F)F)c3)n2)c1)N1CCOCC1 [I-43]
–	–	10 to 100	> 1000	COc1cccc(-c2csc(Nc3cccc(C(F)(F)F)c3)n2)c1 [Compound P-11]
–	–	< 10	100 to 1000	Cc1ccc(-c2csc(Nc3cccc(C(F)(F)F)c3)n2)cc1[N+](=O)[O-] [I-11]
–	–	< 10	> 1000	FC(F)(F)c1cccc(Nc2nc(-c3ccccn3)cs2)c1 [Compound P-9]
–	–	10 to 100	> 1000	Cc1sc(Nc2cccc(C(F)(F)F)c2)nc1-c1cccc(Cl)c1 [I-27]
–	–	< 10	100 to 1000	FC(F)(F)c1cccc(Nc2nc(-c3cccnc3)cs2)c1 [Compound P-8]
–	–	> 1000	> 1000	COc1ccc(-c2csc(Nc3cccc(C(F)(F)F)c3)n2)cc1 [I-46]
–	–	< 10	> 1000	FC(F)(F)c1cccc(Nc2nc(-c3ccncc3)cs2)c1 [Compound P-6]
–	–	100 to 1000	> 1000	C[N+](C)(C)CCC(=O)Nc1cccc(-c2csc(Nc3cccc(C(F)(F)F)c3)n2)c1 [I-34]
–	–	100 to 1000	> 1000	CN(CCOCCN(c1cccc(C(F)(F)F)c1)c1nc(-c2cccc(Cl)c2)cs1)CC(=O)O [I-39]
–	–	< 10	> 1000	FC(F)(F)c1ccc(Nc2nc(-c3cccc(Cl)c3)cs2)cc1 [I-21]
–	–	< 10	> 1000	FC(F)(F)c1cccc(Nc2nc(-c3cccc(Cl)c3)cs2)n1 [I-6]

EC50 (AHR [1]; HepG2, Table 3) [nM]	EC50 (AHR [2]) [nM]	EC50 (AHR [1]; HepG2, Table 2) [nM]	EC50 (AHR [3]) [nM]	Compound
–	–	100 to 1000	> 1000	O=[N+]([O-])c1cccc(Nc2nc(-c3cccc(Cl)c3)cs2)c1 [I-38]
–	–	10 to 100	> 1000	N#Cc1cccc(Nc2nc(-c3cccc(Cl)c3)cs2)c1 [I-25]
–	–	10 to 100	> 1000	C[N+](C)(CCO)CCCNC(=O)N(c1cccc(C(F)(F)F)c1)c1nc(-c2cccc(Cl)c2)cs1 [I-26]
–	–	< 10	> 1000	O=[N+]([O-])c1ccc(-c2csc(Nc3cccc(C(F)(F)F)c3)n2)cc1 [Compound P-3]
–	–	> 1000	> 1000	C[N+]1(C)CCN(C(=O)c2cccc(-c3csc(Nc4cccc(C(F)(F)F)c4)n3)c2)CC1 [I-53]
–	–	100 to 1000	> 1000	Clc1cccc(-c2csc(Nc3ccccn3)n2)c1 [Compound P-13]
–	–	10 to 100	> 1000	C[N+]1(CCNC(=O)N(c2cccc(C(F)(F)F)c2)c2nc(-c3cccc(Cl)c3)cs2)CCCCC1 [I-28]
–	–	100 to 1000	> 1000	C[N+](C)(CCO)CCCC(=O)N(c1cccc(C(F)(F)F)c1)c1nc(-c2cccc(Cl)c2)cs1 [I-42]
–	–	< 10	> 1000	Clc1cccc(Nc2nc(-c3cccc(Cl)c3)cs2)c1 [Compound P-5]
–	–	10 to 100	> 1000	C[N+](C)(CCO)CCOC(=O)N(c1cccc(C(F)(F)F)c1)c1nc(-c2cccc(Cl)c2)cs1 [I-31]
–	–	< 10	100 to 1000	NC(=O)c1cccc(-c2csc(Nc3cccc(C(F)(F)F)c3)n2)c1 [I-22]
–	–	> 1000	> 1000	CN1CCN(C(=O)c2cccc(-c3csc(Nc4cccc(C(F)(F)F)c4)n3)c2)CC1 [I-48]
–	–	< 10	10 to 100	C[N+](C)(CCO)CCNC(=O)N(c1cccc(C(F)(F)F)c1)c1nc(-c2cccc([N+](=O)[O-])c2)cs1 [I-4]
–	–	10 to 100	> 1000	FC(F)(F)c1cccc(Nc2nc(-c3ccc(Cl)cc3)cs2)c1 [Compound P-10]
–	–	< 10	10 to 100	C[N+](C)(C)CCNC(=O)N(c1cccc(C(F)(F)F)c1)c1nc(-c2cccc([N+](=O)[O-])c2)cs1 [I-1]
–	–	< 10	> 1000	C[N+]1(CCNC(=O)N(c2cccc(C(F)(F)F)c2)c2nc(-c3cccc(Cl)c3)cs2)CCC(O)CC1 (centres unmarked) [I-20]
–	–	< 10	100 to 1000	C[N+](C)(CCNC(=O)N(c1cccc(C(F)(F)F)c1)c1nc(-c2cccc(Cl)c2)cs1)CCNC(=O)N(c1cccc(C(F)(F)F)c1)c1nc(-c2cccc(Cl)c2)cs1 [I-2]
–	–	< 10	> 1000	C[N+](C)(C)CCNC(=O)N(c1cccc(C(F)(F)F)c1)c1nc(-c2cccc(Cl)c2)cs1 [I-8]
